Measured values published in patent US20190375786A1, “STABLE PEPTIDES AND METHODS OF USE THEREOF” (Fred Hutchinson Cancer Research Center, priority 2016, published 2019).
Positions of bridges follow the written chain, without caps; N, C: chain ends. Residues, ends and D or L forms follow the SMILES beside them.

Columns and labels:
pepsin = pepsin (Sus scrofa, UniProt P00791); assay: Pepsin digestion resistance in simulated gastric fluid, RP-HPLC; type: in vitro ADME, porcine; set-up: purchased Sigma Aldrich P7012; conditions: 500 U/ml pepsin in SGF pH 1.05, 30 minutes at 37.5° C.; HPLC peak vs untreated peptide
Chain of pepsin (P00791 60-385): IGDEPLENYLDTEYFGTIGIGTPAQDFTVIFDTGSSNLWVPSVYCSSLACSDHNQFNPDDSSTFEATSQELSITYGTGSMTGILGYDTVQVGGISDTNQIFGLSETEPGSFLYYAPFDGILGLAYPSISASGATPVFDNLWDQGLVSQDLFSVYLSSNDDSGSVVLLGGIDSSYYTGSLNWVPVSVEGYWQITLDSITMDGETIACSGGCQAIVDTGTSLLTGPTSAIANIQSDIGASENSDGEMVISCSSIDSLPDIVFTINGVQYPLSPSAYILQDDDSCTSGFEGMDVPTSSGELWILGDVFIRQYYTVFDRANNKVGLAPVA
Method in brief: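 Digestion resistance read by reversed-phase HPLC (C-18, 0.1% TFA, 5–45% acetonitrile over 10 min; 214/280 nm) after 12.5 μg peptide spent 30 min at 37.5 °C in pH 1.05 simulated gastric fluid, with or without 500 U/ml pepsin. Some samples quenched with Tris base and DTT.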

trypsin = trypsin (Sus scrofa, UniProt P00761); assay: Trypsin digestion resistance of soluble peptide, RP-HPLC; type: in vitro ADME, porcine; set-up: purchased Sigma Aldrich 6567; conditions: 500 U/ml trypsin, 30 minutes at 37.5° C.; HPLC peak vs untreated peptide
Chain of trypsin (P00761 9-231): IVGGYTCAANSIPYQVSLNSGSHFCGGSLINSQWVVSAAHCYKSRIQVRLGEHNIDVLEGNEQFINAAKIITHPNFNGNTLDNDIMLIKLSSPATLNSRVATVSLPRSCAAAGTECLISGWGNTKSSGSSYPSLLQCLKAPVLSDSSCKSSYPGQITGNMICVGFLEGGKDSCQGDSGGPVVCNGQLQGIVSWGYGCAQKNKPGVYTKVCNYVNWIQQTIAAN
Method in brief: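 Read-out was RP-HPLC (C-18, water/acetonitrile with 0.1% TFA, 5-45% over 10 min) of peptide left after trypsin treatment. Digest: 12.5 μg peptide, 500 U/ml porcine trypsin, PBS, 37.5° C for 30 min, stopped by soybean trypsin inhibitor; samples then reduced (10 mM DTT) or left non-reduced.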

Row | Compound | Resistance to Pepsin (500 U/ml) (pepsin) | Resistance to Trypsin (500 U/ml) (trypsin)
1 | CC[C@H](C)[C@@H]1NC(=O)[C@@H]2CSSC[C@@H]3NC(=O)[C@H](CCCCN)NC(=O)CNC(=O)[C@H](CC(N)=O)NC(=O)[C@H](CCSC)NC(=O)[C@H](CSSC[C@H](NC(=O)[C@H](CCCCN)NC(=O)[C@@H](NC(=O)[C@H](CC(=O)O)NC(=O)[C@@H](NC(=O)[C@@H]4CCCN4C(=O)[C@@H](NC(=O)CNC(=O)[C@H](CO)NC(=O)CN)C(C)C)[C@@H](C)O)C(C)C)C(=O)N[C@@H](CCCNC(=N)N)C(=O)NCC(=O)N[C@@H](CO)C(=O)N4CCC[C@H]4C(=O)N[C@@H](CCC(N)=O)C(=O)N2)NC(=O)[C@H](CCCCN)NC(=O)CNC(=O)[C@H](Cc2ccccc2)NC(=O)[C@H](CCCNC(=N)N)NC(=O)[C@H](CCSC)NC(=O)CNC(=O)[C@H](C)NC(=O)[C@H](CC(=O)O)NC(=O)[C@H](CCCCN)NC(=O)[C@H](CSSC[C@@H](C(=O)N[C@H](C(=O)N2CCC[C@H]2C(=O)N[C@@H](CCCCN)C(=O)O)[C@@H](C)O)NC(=O)[C@H](Cc2c[nH]cn2)NC3=O)NC(=O)[C@@H]2CCCN2C(=O)[C@H](CCC(N)=O)NC1=O [compound 56] (H-GSGVPTDVKCRGSPQCIQPCKDAGMRFGKCMNGKCHCTPK-OH; disulfide 10-30, 16-35, 20-37) | High (A peptide classified as high indicates that the majority (at least 75%) of the HPLC peak of the treated peptide is still present as compared to the HPLC peak of the untreated peptide) | Low (A peptide classified as low indicates that the majority (over 75%) of the HPLC peak of the treated peptide disappeared as compared to the HPLC peak of the untreated peptide)
2 | CC[C@H](C)[C@H](NC(=O)[C@@H](NC(=O)[C@@H](NC(=O)[C@H](CO)NC(=O)CN)C(C)C)C(C)C)C(=O)NCC(=O)N[C@@H](CCC(N)=O)C(=O)N[C@@H](CCCNC(=N)N)C(=O)N[C@H]1CSSC[C@@H]2NC(=O)[C@H](CCCCN)NC(=O)CNC(=O)[C@H]([C@@H](C)O)NC(=O)[C@H](C)NC(=O)[C@H](CCCCN)NC(=O)CNC(=O)[C@H](C(C)C)NC(=O)[C@H](CC(C)C)NC(=O)[C@H](CCCCN)NC(=O)[C@H](CCCCN)NC(=O)[C@@H]3CSSC[C@@H](C(=O)O)NC(=O)[C@H](CC(=O)O)NC(=O)[C@H](CSSC[C@H](NC(=O)[C@H](CC(=O)O)NC(=O)[C@@H]4CCCN4C(=O)[C@H](CO)NC(=O)[C@H](CCCNC(=N)N)NC(=O)[C@H](Cc4ccc(O)cc4)NC1=O)C(=O)N[C@@H](Cc1ccc(O)cc1)C(=O)N[C@@H](CO)C(=O)N[C@@H](C)C(=O)N3)NC(=O)[C@H](CCCNC(=N)N)NC(=O)CNC(=O)[C@H](CC(N)=O)NC(=O)[C@H]([C@@H](C)O)NC2=O [compound 36] (H-GSVVIGQRCYRSPDCYSACKKLVGKATGKCTNGRCDC-OH; disulfide 9-30, 15-35, 19-37) | High (A peptide classified as high indicates that the majority (at least 75%) of the HPLC peak of the treated peptide is still present as compared to the HPLC peak of the untreated peptide) | Low (A peptide classified as low indicates that the majority (over 75%) of the HPLC peak of the treated peptide disappeared as compared to the HPLC peak of the untreated peptide)
3 | CSCC[C@@H]1NC(=O)[C@@H]2CSSC[C@H](NC(=O)[C@H](CCCCN)NC(=O)[C@@H](NC(=O)[C@H](CC(=O)O)NC(=O)[C@@H](NC(=O)[C@H](Cc3ccccc3)NC(=O)[C@H](CCC(N)=O)NC(=O)[C@H](CO)NC(=O)CN)[C@@H](C)O)C(C)C)C(=O)N[C@@H]([C@@H](C)O)C(=O)NCC(=O)N[C@@H](CO)C(=O)N[C@@H](CCCCN)C(=O)N[C@@H](CCC(N)=O)C(=O)N[C@H]3CSSC[C@H](NC(=O)[C@H](CCCCN)NC(=O)CNC(=O)[C@H](CC(N)=O)NC1=O)C(=O)N[C@@H](CCCNC(=N)N)C(=O)N[C@H](C(=O)N[C@@H](Cc1ccc(O)cc1)C(=O)N[C@@H](CO)C(=O)O)CSSC[C@H](NC(=O)[C@H](C(C)C)NC(=O)[C@@H]1CCCN1C(=O)[C@H](Cc1c[nH]c4ccccc14)NC3=O)C(=O)N[C@@H](CCCCN)C(=O)N[C@@H](CCC(N)=O)C(=O)N[C@@H](CCSC)C(=O)N[C@@H](Cc1ccccc1)C(=O)NCC(=O)N[C@@H](CCCCN)C(=O)N1CCC[C@H]1C(=O)N[C@@H](CC(N)=O)C(=O)NCC(=O)N[C@@H](CCCCN)C(=O)N2 [compound 12] (H-GSQFTDVKCTGSKQCWPVCKQMFGKPNGKCMNGKCRCYS-OH; disulfide 9-30, 15-35, 19-37) | High (A peptide classified as high indicates that the majority (at least 75%) of the HPLC peak of the treated peptide is still present as compared to the HPLC peak of the untreated peptide) | Moderate (A peptide classified as medium indicates that about half (between 25% and 75%) of the HPLC peak of the treated peptide disappeared as compared to the HPLC peak of the untreated peptide)
4 | CC(C)[C@H](NC(=O)[C@H](CO)NC(=O)CN)C(=O)N[C@@H](CO)C(=O)N[C@H]1CSSC[C@@H]2NC(=O)[C@H](CCCCN)NC(=O)[C@H](C)NC(=O)[C@H](CCCNC(=N)N)NC(=O)[C@H](CCC(N)=O)NC(=O)[C@H](CC(=O)O)NC(=O)[C@H](CCCCN)NC(=O)[C@H]([C@@H](C)O)NC(=O)[C@H](C)NC(=O)[C@@H]3CSSC[C@@H](C(=O)N[C@@H](CCC(=O)O)C(=O)N4CCC[C@H]4C(=O)N[C@@H](CCCCN)C(=O)O)NC(=O)[C@H](C(C)C)NC(=O)[C@H](CSSC[C@H](NC(=O)[C@H](CC(=O)O)NC(=O)[C@H](CCC(=O)O)NC1=O)C(=O)N1CCC[C@H]1C(=O)N[C@@H](CCC(=O)O)C(=O)N[C@@H](Cc1c[nH]cn1)C(=O)N3)NC(=O)[C@H](CCCNC(=N)N)NC(=O)[C@H](CC(=O)O)NC(=O)[C@H](CC(N)=O)NC(=O)[C@H](CC(=O)O)NC2=O [compound 54] (H-GSVSCEDCPEHCATKDQRAKCDNDRCVCEPK-OH; disulfide 5-21, 8-26, 12-28) | High (A peptide classified as high indicates that the majority (at least 75%) of the HPLC peak of the treated peptide is still present as compared to the HPLC peak of the untreated peptide) | Low (A peptide classified as low indicates that the majority (over 75%) of the HPLC peak of the treated peptide disappeared as compared to the HPLC peak of the untreated peptide)
5 | CC[C@H](C)[C@H](NC(=O)[C@H](CCCNC(=N)N)NC(=O)[C@@H](NC(=O)[C@H](CO)NC(=O)CN)C(C)C)C(=O)N1CCC[C@H]1C(=O)N[C@H](C(=O)N[C@@H](CO)C(=O)N[C@H]1CSSC[C@@H]2NC(=O)[C@H](CCCCN)NC(=O)CNC(=O)[C@H](Cc3ccccc3)NC(=O)[C@H](CCCNC(=N)N)NC(=O)[C@H](CCSC)NC(=O)CNC(=O)[C@H](C)NC(=O)[C@H](CC(=O)O)NC(=O)[C@H](CCCCN)NC(=O)[C@@H]3CSSC[C@@H](C(=O)N[C@H](C(=O)N4CCC[C@H]4C(=O)N[C@@H](CCCCN)C(=O)O)[C@@H](C)O)NC(=O)[C@H](CC(=O)O)NC(=O)[C@H](CSSC[C@H](NC(=O)[C@H](CCC(N)=O)NC(=O)CNC(=O)[C@H](CO)NC(=O)[C@H](Cc4c[nH]cn4)NC(=O)[C@H](CCCCN)NC1=O)C(=O)N[C@@H](CC(C)C)C(=O)N[C@@H](CCCCN)C(=O)N1CCC[C@H]1C(=O)N3)NC(=O)[C@H](CCCCN)NC(=O)CNC(=O)[C@H](CC(N)=O)NC(=O)[C@H](CCSC)NC2=O)C(C)C [compound 24] (H-GSVRIPVSCKHSGQCLKPCKDAGMRFGKCMNGKCDCTPK-OH; disulfide 9-29, 15-34, 19-36) | High (A peptide classified as high indicates that the majority (at least 75%) of the HPLC peak of the treated peptide is still present as compared to the HPLC peak of the untreated peptide) | Low (A peptide classified as low indicates that the majority (over 75%) of the HPLC peak of the treated peptide disappeared as compared to the HPLC peak of the untreated peptide)
6 | CC[C@H](C)[C@@H]1NC(=O)[C@H](CCC(=O)O)NC(=O)[C@H](CCCNC(=N)N)NC(=O)[C@H](CCCNC(=N)N)NC(=O)[C@@H]2CSSC[C@@H](C(=O)N[C@@H](Cc3ccc(O)cc3)C(=O)N[C@@H](CCCNC(=N)N)C(=O)N[C@@H](CC(N)=O)C(=O)O)NC(=O)[C@H](C(C)C)NC(=O)[C@@H]3CSSC[C@H](NC(=O)[C@H](CO)NC(=O)CNC(=O)CNC(=O)[C@H](CCC(N)=O)NC(=O)[C@@H](NC(=O)[C@H](CCCCN)NC(=O)[C@@H](NC(=O)[C@H](CC(N)=O)NC(=O)[C@@H](NC(=O)[C@H](CCC(N)=O)NC(=O)[C@@H](NC(=O)[C@H](CCC(N)=O)NC(=O)[C@H](CO)NC(=O)CN)C(C)C)[C@@H](C)O)C(C)C)CSSC[C@H](NC(=O)[C@H](CCCCN)NC(=O)CNC(=O)[C@H](C)NC(=O)[C@H](C)NC(=O)[C@H](C(C)C)NC(=O)CNC1=O)C(=O)N[C@@H]([C@@H](C)CC)C(=O)N[C@@H](CC(N)=O)C(=O)NCC(=O)N[C@@H](CCCCN)C(=O)N3)C(=O)N[C@@H](C)C(=O)N[C@@H](CO)C(=O)N[C@@H](C(C)C)C(=O)N2 [compound 30] (H-GSQVQTNVKCQGGSCASVCRREIGVAAGKCINGKCVCYRN-OH; disulfide 10-30, 15-35, 19-37) | Moderate (A peptide classified as medium indicates that about half (between 25% and 75%) of the HPLC peak of the treated peptide disappeared as compared to the HPLC peak of the untreated peptide) | Low (A peptide classified as low indicates that the majority (over 75%) of the HPLC peak of the treated peptide disappeared as compared to the HPLC peak of the untreated peptide)
